Experimental findings from ChEMBL document CHEMBL4049398, “Microscale High-Throughput Experimentation as an Enabling Technology in Drug Discovery: Application in the Discovery of (Piperidinyl)pyridinyl-1H-benzimidazole Diacylglycerol Acyltransferase 1 Inhibitors” (J Med Chem, 2017) are described below.

The structures appear in SMILES notation. Values after ≈ are worked out from the molar mass of the structure shown.

Data set [1] is described as follows: Solubility of the compound at pH 7. As to conditions: buffer. The data set is classed as physicochemical.
In the next data set the target is Cytochrome P450 3A4 (Homo sapiens, UniProt P08684). In words: Inhibition of CYP3A4 (unknown origin). It counts as ADME.
Sequence of Cytochrome P450 3A4 (P08684 whole entry): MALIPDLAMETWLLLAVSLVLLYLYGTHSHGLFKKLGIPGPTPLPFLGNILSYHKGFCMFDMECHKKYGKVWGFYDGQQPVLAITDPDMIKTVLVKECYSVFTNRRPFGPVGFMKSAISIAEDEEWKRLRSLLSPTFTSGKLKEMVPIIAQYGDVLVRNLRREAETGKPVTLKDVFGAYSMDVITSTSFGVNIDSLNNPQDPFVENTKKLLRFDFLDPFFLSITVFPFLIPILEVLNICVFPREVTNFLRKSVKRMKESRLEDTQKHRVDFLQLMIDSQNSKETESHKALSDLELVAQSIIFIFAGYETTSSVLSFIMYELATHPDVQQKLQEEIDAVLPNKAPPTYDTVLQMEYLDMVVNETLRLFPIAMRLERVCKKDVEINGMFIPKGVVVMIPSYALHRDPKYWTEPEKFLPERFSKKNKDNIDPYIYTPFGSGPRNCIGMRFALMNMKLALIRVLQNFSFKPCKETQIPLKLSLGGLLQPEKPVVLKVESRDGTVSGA
Data set [2] in a line: Solubility of the compound at pH 2. It counts as physicochemical. As to conditions: buffer.
The nature of data set [3]: Lipophilicity, log D of the compound. It counts as physicochemical. As to conditions: octanol/water.
Data set [4] concerns the target T1, Nuclear receptor subfamily 1 group I member 2 (Homo sapiens, UniProt O75469).
T1 sequence (O75469 whole entry): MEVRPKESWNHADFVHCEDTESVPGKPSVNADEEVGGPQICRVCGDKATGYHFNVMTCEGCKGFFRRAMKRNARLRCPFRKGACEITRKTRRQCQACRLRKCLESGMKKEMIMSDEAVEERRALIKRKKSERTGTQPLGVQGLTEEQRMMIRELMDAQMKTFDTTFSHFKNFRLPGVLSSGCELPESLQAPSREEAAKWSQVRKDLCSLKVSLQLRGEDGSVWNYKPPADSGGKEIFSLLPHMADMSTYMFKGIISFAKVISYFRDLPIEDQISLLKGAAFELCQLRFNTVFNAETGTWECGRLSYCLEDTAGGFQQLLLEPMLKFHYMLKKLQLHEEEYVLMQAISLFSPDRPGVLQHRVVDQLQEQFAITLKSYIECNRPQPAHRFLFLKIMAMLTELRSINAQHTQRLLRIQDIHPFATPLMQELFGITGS
The data set is described as follows: Inhibition of PXR (unknown origin). It counts as ADME.

The next data set has as its target Cytochrome P450 2C9 (Homo sapiens, UniProt P11712). The data set is described as follows: Inhibition of CYP2C9 (unknown origin). It counts as ADME.
The target of data set [5] is Voltage-gated inwardly rectifying potassium channel KCNH2 (Homo sapiens, UniProt Q12809). The data set is described as follows: Inhibition of MK499 binding to human ERG.
Sequence of Voltage-gated inwardly rectifying potassium channel KCNH2 (Q12809 whole entry): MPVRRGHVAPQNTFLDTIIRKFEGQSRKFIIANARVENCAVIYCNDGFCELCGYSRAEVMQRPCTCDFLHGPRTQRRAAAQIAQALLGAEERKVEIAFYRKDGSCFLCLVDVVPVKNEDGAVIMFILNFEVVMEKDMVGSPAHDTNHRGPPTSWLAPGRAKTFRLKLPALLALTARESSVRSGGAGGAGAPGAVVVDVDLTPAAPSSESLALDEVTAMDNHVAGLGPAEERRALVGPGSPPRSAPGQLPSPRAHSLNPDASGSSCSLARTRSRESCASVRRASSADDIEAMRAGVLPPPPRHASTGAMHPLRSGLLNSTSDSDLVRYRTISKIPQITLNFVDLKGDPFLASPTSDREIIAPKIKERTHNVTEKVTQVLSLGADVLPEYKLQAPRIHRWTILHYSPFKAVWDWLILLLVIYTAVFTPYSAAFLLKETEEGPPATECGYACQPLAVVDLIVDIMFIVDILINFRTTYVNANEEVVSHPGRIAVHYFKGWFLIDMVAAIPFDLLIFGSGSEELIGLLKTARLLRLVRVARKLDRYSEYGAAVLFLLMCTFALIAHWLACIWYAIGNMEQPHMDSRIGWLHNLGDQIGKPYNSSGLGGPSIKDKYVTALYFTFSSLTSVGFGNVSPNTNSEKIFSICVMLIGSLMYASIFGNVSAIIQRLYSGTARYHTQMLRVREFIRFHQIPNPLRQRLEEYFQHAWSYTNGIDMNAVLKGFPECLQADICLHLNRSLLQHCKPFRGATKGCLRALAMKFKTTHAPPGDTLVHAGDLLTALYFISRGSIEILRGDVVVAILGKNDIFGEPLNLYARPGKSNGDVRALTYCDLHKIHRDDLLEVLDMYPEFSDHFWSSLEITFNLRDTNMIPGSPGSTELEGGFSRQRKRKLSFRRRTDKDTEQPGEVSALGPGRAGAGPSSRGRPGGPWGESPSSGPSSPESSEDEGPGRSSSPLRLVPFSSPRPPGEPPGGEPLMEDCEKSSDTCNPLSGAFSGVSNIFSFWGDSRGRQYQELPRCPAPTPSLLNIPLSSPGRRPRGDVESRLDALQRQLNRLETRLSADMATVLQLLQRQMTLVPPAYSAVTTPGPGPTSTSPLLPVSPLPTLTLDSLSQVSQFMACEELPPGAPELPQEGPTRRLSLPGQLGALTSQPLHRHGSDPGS
Another data set deals with Rattus norvegicus. In words: Intrinsic clearance Wistar Han rat at 1 mg/kg, iv. It counts as ADME, organism-based. The note with it: in vivo.
The target of data set [6] is T2, Diacylglycerol O-acyltransferase 1 (Homo sapiens, UniProt O75907).
T2 sequence (O75907 whole entry): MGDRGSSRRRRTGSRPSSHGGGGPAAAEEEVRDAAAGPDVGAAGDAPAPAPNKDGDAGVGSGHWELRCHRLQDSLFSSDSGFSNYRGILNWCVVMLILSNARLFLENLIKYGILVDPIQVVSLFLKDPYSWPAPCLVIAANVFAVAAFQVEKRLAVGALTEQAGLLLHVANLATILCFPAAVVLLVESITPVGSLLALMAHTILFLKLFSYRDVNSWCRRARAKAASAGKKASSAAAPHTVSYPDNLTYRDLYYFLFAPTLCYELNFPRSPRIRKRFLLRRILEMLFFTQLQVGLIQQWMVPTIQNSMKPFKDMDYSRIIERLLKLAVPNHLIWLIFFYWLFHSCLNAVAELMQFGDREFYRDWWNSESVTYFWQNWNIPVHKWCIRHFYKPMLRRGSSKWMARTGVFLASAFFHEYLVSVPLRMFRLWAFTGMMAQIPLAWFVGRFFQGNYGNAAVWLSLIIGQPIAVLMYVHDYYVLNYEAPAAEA
The data set is described as follows: Inhibition of human DGAT1 expressed in yeast membrane fraction assessed as inhibition of triglyceride formation using diolein/oleoyl-CoA as substrate measured after 1 hr by 7-diethylamino-3-(4'-maleimidylphenyl)-4-methylcoumarin based fluorescence analysis. It counts as cell membranes.

The target in data set [7] is T3, Diacylglycerol O-acyltransferase 1 (Mus musculus, UniProt Q9Z2A7).
T3 sequence (Q9Z2A7 whole entry): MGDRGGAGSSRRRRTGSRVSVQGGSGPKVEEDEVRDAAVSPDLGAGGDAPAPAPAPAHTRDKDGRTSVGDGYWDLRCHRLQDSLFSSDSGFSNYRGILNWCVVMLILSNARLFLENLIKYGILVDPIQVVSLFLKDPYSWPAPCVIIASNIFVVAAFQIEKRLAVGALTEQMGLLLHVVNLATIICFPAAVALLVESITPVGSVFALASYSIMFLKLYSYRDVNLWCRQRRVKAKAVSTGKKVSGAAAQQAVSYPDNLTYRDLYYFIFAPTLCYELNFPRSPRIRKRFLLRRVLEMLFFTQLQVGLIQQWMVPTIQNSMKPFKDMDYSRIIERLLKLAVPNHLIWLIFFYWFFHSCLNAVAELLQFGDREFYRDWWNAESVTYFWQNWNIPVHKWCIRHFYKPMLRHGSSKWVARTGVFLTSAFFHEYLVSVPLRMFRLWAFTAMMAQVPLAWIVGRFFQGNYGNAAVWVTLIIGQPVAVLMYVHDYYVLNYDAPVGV
In words: Inhibition of mouse DGAT1 assessed as inhibition of triglyceride formation.

Data set [8] concerns Mus musculus. In words: Reduction in triglyceride level in mouse plasma at 30 mg/kg, po after 18 hrs by lipid tolerance test. The data set is classed as functional.
Data set [9] deals with Mus musculus. The data set is described as follows: Reduction in triglyceride level in mouse plasma at 10 mg/kg,po after 18 hrs by lipid tolerance test. It counts as functional.

Sequence of Cytochrome P450 2C9 (P11712 whole entry): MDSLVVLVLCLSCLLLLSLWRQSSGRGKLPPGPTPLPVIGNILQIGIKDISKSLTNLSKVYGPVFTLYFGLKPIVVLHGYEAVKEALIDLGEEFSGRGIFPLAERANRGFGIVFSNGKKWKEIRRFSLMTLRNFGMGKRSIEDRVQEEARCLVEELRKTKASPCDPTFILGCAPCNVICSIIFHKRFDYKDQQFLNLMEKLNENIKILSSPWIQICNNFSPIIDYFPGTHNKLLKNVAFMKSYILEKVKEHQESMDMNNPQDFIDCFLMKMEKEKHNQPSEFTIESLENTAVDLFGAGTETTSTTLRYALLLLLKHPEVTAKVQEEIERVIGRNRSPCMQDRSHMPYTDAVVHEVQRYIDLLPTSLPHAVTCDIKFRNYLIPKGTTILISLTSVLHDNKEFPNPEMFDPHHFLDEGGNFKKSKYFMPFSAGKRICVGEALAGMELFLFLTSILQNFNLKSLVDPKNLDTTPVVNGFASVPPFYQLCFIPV

In the case of `O=C(O)CC1CCC2(CCN(c3ccc(-c4nc5cc(C(F)(F)F)ccc5[nH]4)cn3)CC2)O1` (single isomer, unassigned; form 2), the solubility in data set [1] came out at 147 µM (≈ 67.7 µg/mL); in [2], 163 µM (≈ 75.1 µg/mL). The IC50 against Cytochrome P450 3A4 was above 50 µM; in [4] it was above 30 µM; against Cytochrome P450 2C9 it was 39.5 µM; in [5] it was 17.4 µM. In addition, the logD in data set [3] was 1.58.

On to `O=C(O)CC1CCC2(CCN(c3ccc(-c4nc5cc(C(F)(F)F)ccc5[nH]4)cn3)CC2)O1` (racemic), for which the solubility is 149 µM (≈ 68.6 µg/mL) in data set [1] (read-out: solubility) and 170 µM (≈ 78.3 µg/mL) in data set [2] (read-out: solubility). For the same compound, the half-inhibitory concentration (IC50) against Cytochrome P450 3A4 is above 50 µM; in [4] it was above 30 µM; at Cytochrome P450 2C9 it was above 50 µM; in [5], above 60 µM. Besides, the logD in data set [3] (read-out: logD) is 1.55. This compound yielded a CL in the data set on Rattus norvegicus of 34.2 mL/min/kg.

As to `O=C(O)CN1CCC2(CC1)CCN(c1ccc(-c3nc4cc(C(F)(F)F)ccc4[nH]3)cn1)CC2`, the solubility in data set [1] (read-out: solubility) turned out to be 168 µM (≈ 79.5 µg/mL); in data set [2] (read-out: solubility), 207 µM (≈ 98 µg/mL). In addition, the concentration for half-maximal inhibition (IC50) at Cytochrome P450 3A4 was above 50 µM; in [4], above 30 µM; at Cytochrome P450 2C9 it was above 50 µM; in [6], above 10 µM; in data set [5], 4.8 µM. Besides, the logD in data set [3] (read-out: logD) was 1.38.

For `O=C(O)C1CCC2(CCN(c3ccc(-c4nc5cc(C(F)(F)F)ccc5[nH]4)cn3)CC2)OC1` (centres undefined), the solubility in [1] (read-out: solubility) was 163 µM (≈ 75.1 µg/mL); in data set [2] (read-out: solubility), 174 µM (≈ 80.1 µg/mL). In addition, the IC50 at Cytochrome P450 3A4 is above 50 µM; in data set [4], above 30 µM; against Cytochrome P450 2C9 it was above 50 µM; in data set [5], 14.7 µM. Also, in data set [3] (read-out: logD), the pH-dependent lipophilicity (logD) was determined as 1.52.

On to `O=C(O)CC1CCC2(CCN(c3ccc(-c4nc5cc(C(F)(F)F)ccc5[nH]4)cn3)CC2)OC1` (stereo in doubt), for which the IC50 against Cytochrome P450 3A4 was 19.5 µM; in [4] it was above 30 µM; on Cytochrome P450 2C9, 20.4 µM; in data set [5] it was 0.8 µM.

For `O=C(O)CC1COC2(CCN(c3ccc(-c4nc5cc(C(F)(F)F)ccc5[nH]4)cn3)CC2)C1` (racemic), the figures for the solubility in [1] (read-out: solubility) and in data set [2] (read-out: solubility) were 182 µM (≈ 83.8 µg/mL) and 170 µM (≈ 78.3 µg/mL), respectively. Moreover, the concentration for half-maximal inhibition (IC50) on Cytochrome P450 3A4 was above 50 µM; in data set [7], 178 nM; in data set [4], above 30 µM; against Cytochrome P450 2C9 it was above 50 µM. Besides, the logD in data set [3] (read-out: logD) turned out to be 1.51.

`O=C(O)CC1CCC2(CCN(c3ccc(-c4nc5cc(C(F)(F)F)ccc5[nH]4)cn3)CC2)O1` (single isomer, unassigned; form 1): the values for the solubility in [1] and in data set [2] were 190 µM (≈ 87.5 µg/mL) and above 200 µM, respectively. The compound further came in with a logD in [3] of 1.52. Also, in data set [5], the half-inhibitory concentration (IC50) came to 16 µM.

As to `O=C(O)CC1CCC2(CCN(c3ccc(-c4nc5cc(C(F)(F)F)ccc5[nH]4)cn3)CC2)OC1` (racemic), the figures for the solubility in data set [1] (read-out: solubility) and in data set [2] (read-out: solubility) were 172 µM (≈ 81.6 µg/mL) and 179 µM (≈ 84.9 µg/mL), respectively. The half-maximal inhibitory concentration (IC50) on Cytochrome P450 3A4 was above 50 µM; in data set [4], above 30 µM; against Cytochrome P450 2C9, above 50 µM; in data set [5], 7.8 µM. Moreover, the logD in data set [3] (read-out: logD) came to 1.52.

On to `O=C(O)C[C@@H]1COC2(CCN(c3ccc(-c4nc5cc(C(F)(F)F)ccc5[nH]4)cn3)CC2)C1`, for which the results for the solubility in data set [1] (read-out: solubility) and in [2] (read-out: solubility) were 158 µM (≈ 72.8 µg/mL) and 171 µM (≈ 78.7 µg/mL), respectively. In addition, the 50% inhibitory concentration (IC50) on Cytochrome P450 3A4 is above 50 µM; in [4] it was above 30 µM; at Cytochrome P450 2C9, above 50 µM. Further, the logD in data set [3] (read-out: logD) worked out at 1.44. Moreover, in the data set with Mus musculus [8], testing at 30 mg/kg gave an inhibition in vivo of 54%. In addition, the inhibition in vivo at 10 mg/kg with Mus musculus [9] was found to be 32%.

On to `O=C(O)CC1CCC2(CCN(c3ccc(-c4nc5cc(C(F)(F)F)ccc5[nH]4)cn3)CC2)OC1` (single isomer, unassigned; ent B), for which the 50% inhibitory concentration (IC50) against Cytochrome P450 3A4 was 13.3 µM; in [4], above 30 µM; against Cytochrome P450 2C9 it was 25.6 µM; in data set [5], 1.2 µM.
